Measurements from PMC9796306, “Multiple detection of both attractants and repellents by the dCache‐chemoreceptor SO_1056 of Shewanella oneidensis” (The Febs Journal, 2022).

Columns and labels:
[1] = molecular target: T1, MBP-LBD1056 (ligand-binding domain of MCP SO_1056) (Shewanella oneidensis, UniProt Q8EHZ8); assay: isothermal titration calorimetry; details: read-out: apparent KD
T1 sequence (Q8EHZ8 29-278): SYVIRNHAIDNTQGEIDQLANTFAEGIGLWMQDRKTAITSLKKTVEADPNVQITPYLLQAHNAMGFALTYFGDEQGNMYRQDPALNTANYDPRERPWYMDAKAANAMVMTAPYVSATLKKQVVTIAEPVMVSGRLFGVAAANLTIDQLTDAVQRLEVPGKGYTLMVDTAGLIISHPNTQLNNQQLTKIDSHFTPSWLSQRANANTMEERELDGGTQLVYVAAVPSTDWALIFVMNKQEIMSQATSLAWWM

[2] = molecular target: MBP-LBD1056 (ligand-binding domain of MCP SO_1056) (Shewanella oneidensis, UniProt Q8EHZ8, N170D)
Sequence of MBP-LBD1056 (ligand-binding domain of MCP SO_1056) (Shewanella oneidensis, UniProt Q8EHZ8, N170D) (Q8EHZ8 entry or part of it N170D): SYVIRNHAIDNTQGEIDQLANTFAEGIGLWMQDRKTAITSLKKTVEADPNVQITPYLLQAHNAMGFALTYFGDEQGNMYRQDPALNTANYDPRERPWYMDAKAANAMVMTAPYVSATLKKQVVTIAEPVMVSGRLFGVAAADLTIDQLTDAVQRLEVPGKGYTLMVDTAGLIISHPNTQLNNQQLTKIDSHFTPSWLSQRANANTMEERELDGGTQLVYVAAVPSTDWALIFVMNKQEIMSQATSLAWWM

Kd [1]: 3.4 ± 0.3 µM
dTm at 1 mM [2]: 2.4 °C
Compound: O=C(O)C[C@H](O)C(=O)O [L-malate]
